Measured values reported in ChEMBL document CHEMBL1201862, “PubChem BioAssay data set” (2004).
Activity calls are given as the source filed them.

What was measured:
[1] = Counterscreen for […] of the human trace amine associated receptor 1 (TAAR1): Fluorescence-based cell-based high throughput dose response assay to identify nonselective Ga16 agonists.; type: functional
[2] = biological target: T1, Trace amine-associated receptor 1 (Homo sapiens, UniProt Q96RJ0); experiment: Fluorescence-based cell-based high throughput dose response assay to identify antagonists of the human trace amine associated receptor 1 (TAAR1).; type: functional
T1 sequence (Q96RJ0 whole entry): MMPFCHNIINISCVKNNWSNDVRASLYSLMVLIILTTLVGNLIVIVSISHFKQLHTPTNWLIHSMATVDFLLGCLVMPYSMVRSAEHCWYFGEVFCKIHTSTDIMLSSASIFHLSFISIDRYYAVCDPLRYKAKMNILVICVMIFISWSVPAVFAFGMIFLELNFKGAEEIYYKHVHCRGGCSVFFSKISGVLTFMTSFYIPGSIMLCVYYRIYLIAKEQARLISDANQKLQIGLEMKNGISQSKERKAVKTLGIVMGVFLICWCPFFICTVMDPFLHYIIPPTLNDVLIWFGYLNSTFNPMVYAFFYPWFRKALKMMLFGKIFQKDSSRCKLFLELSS

[3] = Counterscreen for antagonists of the human trace amine associated receptor 1 (hTAAR1): Fluorescence-based cell-based high throughput dose response assay to identify nonselective Ga16 antagonists.; type: functional
[4] = biological target: T1, Trace amine-associated receptor 1; experiment: Counterscreen for antagonists of the human trace amine associated receptor 1 (hTAAR1): Fluorescence-based cell-based high throughput dose response assay to identify TAAR1 Agonists.; type: functional
[5] = human group III sPLA2 inhibitors, dose response, biochemical, QFRET, IC50 (AID 743457);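 also: green fluorescence rise as the enzyme cleaves BODIPY PC-A2 in liposomes; potency for inhibition of the enzyme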
[6] = intracellular Trypanosoma cruzi inhibitors in host cells – cell-based, plate reader, cherry-pick samples, set 3, dose response (AID 651818); type: functional;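 also: compounds incubated with infected cells for about four days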
[7] = NIH/3T3 fibroblast cytotoxicity, dose response, cytotoxicity control for T. cruzi growth inhibitor project, cell-based, cherry-pick samples, set 2 (AID 651817); type: functional; conditions: NIH3T3
A549 = experiment: A549 cell toxicity, dose response, cytotoxicity control, plate reader, cherry-pick samples (AID 687028); type: functional, cell-based; conditions: Homo sapiens
[8] = HEK293T cytotoxicity, dose response, cytotoxicity control for miR-122 modulator project, cell-based, inhibitor set, cherry-pick, set 2 (AID 720697); type: functional
[9] = cytotoxicity in HeLa cells, dose response, cytotoxicity control, cell-based, 24 h, dry powder, set 2 (AID 651774); type: functional
[10] = CFTR ΔF508 corrector activity in bronchial cells, dose response, human bronchial epithelial cells, plate reader, cherry-pick, two tests (AID 743267); type: functional, cell-based
[11] = biological target: Endoplasmic reticulum aminopeptidase 1 (Homo sapiens, UniProt Q9NZ08); experiment: ERAP1 aminopeptidase inhibitors, dose response, biochemical, cherry-pick, set 2, plate reader (AID 743314)
[12] = biological target: Fructose-bisphosphate aldolase (Mycobacterium tuberculosis, UniProt P9WQA3); experiment: Fluorescence-based biochemical high throughput dose response assay for inhibitors of the fructose-bisphosphate aldolase (FBA) of M. tuberculosis.; type: functional
[13] = biological target: Voltage-gated inwardly rectifying potassium channel KCNH2 (Homo sapiens, UniProt Q12809); experiment: hERG protection from proarrhythmic block, potency, dose response, cell-based, thallium flux (AID 2121); type: ADME
Streptokinase A = biological target: T2, Streptokinase A (Streptococcus pyogenes serotype M1, UniProt P10520); experiment: S. pyogenes streptokinase expression inhibitors, potency, dose response, plasminogen activation absorbance, OD405 (AID 1914); type: functional, Streptococcus pyogenes M1 GAS;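 also: secreted streptokinase activity via plasminogen activation per viability signal from cell pellet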
T2 sequence (P10520 whole entry): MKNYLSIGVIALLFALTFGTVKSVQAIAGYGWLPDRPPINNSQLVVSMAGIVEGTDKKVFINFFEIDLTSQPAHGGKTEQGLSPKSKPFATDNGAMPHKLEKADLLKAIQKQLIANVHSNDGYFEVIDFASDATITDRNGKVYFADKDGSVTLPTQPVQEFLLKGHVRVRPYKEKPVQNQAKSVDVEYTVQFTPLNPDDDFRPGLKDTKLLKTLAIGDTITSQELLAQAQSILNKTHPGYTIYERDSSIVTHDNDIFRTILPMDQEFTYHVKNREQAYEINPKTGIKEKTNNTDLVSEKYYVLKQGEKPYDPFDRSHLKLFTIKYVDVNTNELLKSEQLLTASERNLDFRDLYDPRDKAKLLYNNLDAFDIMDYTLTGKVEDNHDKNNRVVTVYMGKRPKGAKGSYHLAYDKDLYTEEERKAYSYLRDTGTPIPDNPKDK

[14] = test system: Streptococcus sp. 'group A'; experiment: growth inhibition of control SK(-) GAS strain, dose response, counter-screen for streptokinase expression inhibitor project, luminescence, kanamycin, BacTiterGlo, confirmation (AID 1900); type: functional, organism-based
Streptococcus = experiment: Group A Streptococcus viability loss, dose response, counter-screen for streptokinase expression inhibitor project, luminescence, BacTiterGlo (AID 1915); type: functional, organism-based; conditions: read-out: EC50;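 also: potency for reduction of bacterial viability or growth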

Sequence of Endoplasmic reticulum aminopeptidase 1 (Q9NZ08 whole entry): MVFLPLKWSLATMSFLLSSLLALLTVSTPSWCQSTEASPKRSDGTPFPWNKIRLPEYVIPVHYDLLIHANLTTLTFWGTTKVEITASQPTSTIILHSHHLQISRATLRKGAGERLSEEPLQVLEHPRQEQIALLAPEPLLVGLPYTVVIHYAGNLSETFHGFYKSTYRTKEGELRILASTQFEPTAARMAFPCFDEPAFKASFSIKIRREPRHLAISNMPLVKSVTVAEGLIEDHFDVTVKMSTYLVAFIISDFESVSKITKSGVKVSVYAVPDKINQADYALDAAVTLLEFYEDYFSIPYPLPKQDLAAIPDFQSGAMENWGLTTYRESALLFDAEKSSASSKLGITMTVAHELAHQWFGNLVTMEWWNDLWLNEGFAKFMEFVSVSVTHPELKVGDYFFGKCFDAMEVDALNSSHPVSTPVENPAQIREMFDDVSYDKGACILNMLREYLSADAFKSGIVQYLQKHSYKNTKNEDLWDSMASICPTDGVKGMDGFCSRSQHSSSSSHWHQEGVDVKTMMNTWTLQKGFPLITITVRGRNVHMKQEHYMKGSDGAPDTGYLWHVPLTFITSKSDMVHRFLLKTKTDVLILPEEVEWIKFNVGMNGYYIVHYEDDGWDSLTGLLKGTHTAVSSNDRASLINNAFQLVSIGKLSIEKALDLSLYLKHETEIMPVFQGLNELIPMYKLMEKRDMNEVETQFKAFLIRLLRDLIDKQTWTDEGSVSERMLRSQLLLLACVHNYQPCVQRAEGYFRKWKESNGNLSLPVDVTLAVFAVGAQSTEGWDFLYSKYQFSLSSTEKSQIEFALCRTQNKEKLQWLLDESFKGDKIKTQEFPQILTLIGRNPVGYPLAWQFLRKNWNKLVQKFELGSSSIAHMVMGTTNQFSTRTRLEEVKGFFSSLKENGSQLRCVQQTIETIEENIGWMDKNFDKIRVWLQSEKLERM
Sequence of Fructose-bisphosphate aldolase (P9WQA3 whole entry): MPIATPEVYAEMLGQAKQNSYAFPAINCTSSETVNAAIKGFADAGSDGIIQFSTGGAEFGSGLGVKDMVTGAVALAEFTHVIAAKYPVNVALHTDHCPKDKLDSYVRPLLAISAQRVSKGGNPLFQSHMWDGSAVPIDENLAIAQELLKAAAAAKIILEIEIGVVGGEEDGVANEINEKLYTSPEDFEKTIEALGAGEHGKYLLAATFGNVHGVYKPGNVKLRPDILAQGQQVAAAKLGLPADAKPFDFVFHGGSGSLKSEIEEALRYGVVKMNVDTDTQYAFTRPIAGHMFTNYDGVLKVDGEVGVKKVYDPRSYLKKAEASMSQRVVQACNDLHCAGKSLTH
Sequence of Voltage-gated inwardly rectifying potassium channel KCNH2 (Q12809 whole entry): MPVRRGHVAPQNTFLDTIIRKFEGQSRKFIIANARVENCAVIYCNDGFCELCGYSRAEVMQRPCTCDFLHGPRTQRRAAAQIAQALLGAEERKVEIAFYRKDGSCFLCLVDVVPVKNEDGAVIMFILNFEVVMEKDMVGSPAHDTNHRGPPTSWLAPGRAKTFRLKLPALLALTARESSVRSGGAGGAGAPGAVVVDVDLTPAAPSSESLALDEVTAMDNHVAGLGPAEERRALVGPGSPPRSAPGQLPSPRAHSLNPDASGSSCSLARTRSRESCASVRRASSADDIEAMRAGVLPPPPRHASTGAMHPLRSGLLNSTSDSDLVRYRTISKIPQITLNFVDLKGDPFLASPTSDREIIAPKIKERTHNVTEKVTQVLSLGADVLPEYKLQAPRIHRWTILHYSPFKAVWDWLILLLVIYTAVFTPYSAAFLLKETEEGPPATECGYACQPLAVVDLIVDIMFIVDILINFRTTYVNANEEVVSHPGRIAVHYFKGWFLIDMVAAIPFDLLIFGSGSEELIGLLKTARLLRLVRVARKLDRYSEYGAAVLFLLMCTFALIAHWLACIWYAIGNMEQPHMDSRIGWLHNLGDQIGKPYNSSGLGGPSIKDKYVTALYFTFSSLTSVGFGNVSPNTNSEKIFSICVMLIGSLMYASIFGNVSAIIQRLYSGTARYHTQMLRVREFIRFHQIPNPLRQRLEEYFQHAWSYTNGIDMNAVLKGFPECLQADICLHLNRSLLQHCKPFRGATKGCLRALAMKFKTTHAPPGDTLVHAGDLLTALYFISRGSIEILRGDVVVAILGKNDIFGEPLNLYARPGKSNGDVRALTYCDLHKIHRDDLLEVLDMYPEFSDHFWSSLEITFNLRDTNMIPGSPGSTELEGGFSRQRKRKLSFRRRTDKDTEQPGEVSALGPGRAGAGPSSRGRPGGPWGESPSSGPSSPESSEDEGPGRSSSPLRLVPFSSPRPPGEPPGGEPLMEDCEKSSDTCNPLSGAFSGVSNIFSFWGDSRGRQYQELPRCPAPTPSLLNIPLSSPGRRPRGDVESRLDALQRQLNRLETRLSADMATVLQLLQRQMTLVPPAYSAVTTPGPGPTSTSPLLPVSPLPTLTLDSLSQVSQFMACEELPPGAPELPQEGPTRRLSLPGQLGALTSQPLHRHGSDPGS

In the case of `O=[N+]([O-])c1ccc(-c2c(-c3ccccc3)ncc3cc(F)ccc23)cc1`, the EC50 [1] is reported as > 29.9 µM (inactive), the IC50 [2] is reported as 4.77 µM (active) and the IC50 [3] is reported as > 29.9 µM (inactive). For the same compound, the EC50 [4] was > 29.9 µM (inactive).

With `CCCCn1c(S)nnc1C12CC3CC(CC(C3)C1)C2` the IC50 [5] was > 122 µM (inactive).

For `Cc1ccc(S(=O)(=O)Nc2ccc3c(c2)CC(=O)N([C@H](C)CO)C[C@@H](C)[C@@H](CN(C)S(=O)(=O)c2ccc(Cl)cc2)O3)cc1`, the AC50 [6] was 1.96 µM (active) and the AC50 [7] was 33.1 µM (active).

For `Cc1ccc(NC(=O)c2cc(-c3cc(Cl)ccc3C)[nH]n2)cc1NS(C)(=O)=O`, the AC50 (A549) was 23.8 µM (active).

For `CC(=O)N1[C@H](CN(C(=O)c2ccc(F)cc2)C(C)C)[C@H](c2ccccc2)[C@@H]1CO`, the AC50 [8] was 10.5 µM (active).

For `CCc1ccc(C(=O)Nc2nnnn2CC)cc1`, the AC50 [9] was > 70 µM (inactive).

In the case of `COc1cccc(S(=O)(=O)N2C[C@@H]3N[C@H](C2)[C@@H]3c2ccc(-c3cccc(C)c3)cc2)c1`, the AC50 [10] is reported as 16 µM (active).

In the case of `CN1c2ccc(-c3ccc(C#N)cc3)cc2[C@@H]2[C@@H](CCN2C(=O)CC2CC2)[C@@H]1CO`, the AC50 [11] is reported as 19.8 µM (active).

In the case of `Sc1nc(-c2ccccc2)cn1/N=C/c1cccc2ccccc12`, the IC50 [12] is reported as > 9.99 µM (inactive), the EC50 [13] is reported as 0.7 µM (active) and the EC50 (Streptokinase A) is reported as > 150 µM (not active). The EC50 [14] was 89.1 µM (active) and the EC50 (Streptococcus) was > 150 µM (not active).
